From US20090081197A1 (Palatin Technologies, Inc., priority 2007, published 2009)
Non-standard residues stand in square brackets, D forms with d. Residues, ends and D or L forms follow the SMILES beside them. *: point of attachment. dPhe(4-Cl) = N[C@H](Cc1ccc(Cl)cc1)C(=O)O; Ahp = NCCCCCCC(=O)O; Bn = c1ccc(C*)cc1

How the values were obtained:
MC4-R [1] = biological target: T1, MC4-R (Homo sapiens, UniProt P32245); test: cAMP agonist stimulation, high receptor density system (10 ng/mL doxycycline); details: for Efficacy/Intrinsic Activity: 10 ng/mL doxycycline, high receptor density hMC4-R system, NDP-α-MSH maximal cAMP = 1.0
[2] = ICV food intake and body weight change; type: in vivo; details: rat, 1 nmol, 24 hours
Description: (§1) ICV food intake and body weight change. Change in food intake and body weight was evaluated for selected compounds. Rats with indwelling intracerebroventricular cannulas (ICV rats) were obtained from Hilltop Lab Animals, Inc. (Scottdale, Pa.). Animals were individually housed in conventional plexiglass hanging cages and maintained on a controlled 12 hour on/off light cycle. Water and powdered (LabDiet, 5P00 Prolab RMH 3000) or pelleted (Harlan Teklad 2018 18% Protein Rodent Diet) food was provided ad libitum. For 1 week before treatment, 24-hour food intake and body weight change was recorded to assess a baseline for the group during vehicle treatment. The rats were dosed ICV with vehicle or selected compounds (1-3 nmol). The changes in body weight and food intake for the 24 hour period after dosing were determined. The changes in body weight and food intake for the 48 hour and 72 hour periods after dosing were also measured to determine reversal of changes in body weight and food intake effects back to baseline levels.

MC5-R = MC5-R (Homo sapiens, UniProt P33032); test: Competitive inhibition assay using [I^125]-NDP-α-MSH, hMC5-R membranes; type: binding; parameters: expressed in transfected cells; details: 1 μM test compound; read-out: Inhibition at 1 μM (NDP-α-MSH) In Normal System, MC5-R
Method in brief: (§2)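 Tracer was 0.4 nM for MC3-R and MC5-R, 0.2 nM for MC4-R and 0.1 nM for MC1-R. Bound radioactivity was gamma-counted after filtration; values are triplicate means, with results below 0% reported as 0%.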

MC3-R = MC3-R (Homo sapiens, UniProt P41968); test: Competitive inhibition assay using [I^125]-NDP-α-MSH, hMC3-R membranes; type: binding; parameters: expressed in transfected cells; details: 1 μM test compound; read-out: Inhibition at 1 μM (NDP-α-MSH) In Normal System, MC3-R
Method in brief: as §2

[3] = Penile erection induction in male rats; type: in vivo; details: rat
Method in brief: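 Male Sprague-Dawley rats (200-250 g), groups of 4-8, dosed IV or ICV at various doses and observed individually for penile erections. Only statistically relevant increases over vehicle-control mean PEs count as induction; IV responses below 1.0 PEs/rat treated as equivocal, some retested ICV.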

[4] = IV and IP food intake and body weight change, rats; type: in vivo; details: rat, IV, dose not stated
Description: as §1, with “IV and IP food” for “ICV food”, “compounds. Male Sprague-Dawley rats or male C57BL/6 mice” for “compounds. Rats with indwelling intracerebroventricular cannulas (ICV rats)”, “were utilized.” for “were obtained from Hilltop Lab Animals, Inc. (Scottdale, Pa.).”, “dosed IV” for “dosed ICV”, “compounds (0.5-3 mg/kg, and in some cases up to 10 mg/Kg) or dosed intraperitoneally (IP) with vehicle or selected compounds (0.5-10 mg/kg, and in some cases up to 50 mg/kg). Mice were dosed IP.” for “compounds (1-3 nmol).”, “to determined” for “to determine”

MC4-R [5] = biological target: T1, MC4-R; test: cAMP agonist stimulation, low receptor density system (0.1 ng/mL doxycycline); details: for Efficacy/Intrinsic Activity: 0.1 ng/mL doxycycline, low receptor density hMC4-R system, NDP-α-MSH maximal cAMP = 1.0
MC4-R [6] = biological target: T1, MC4-R; test: Competitive inhibition assay using [I^125]-NDP-α-MSH, hMC4-R membranes; type: binding; parameters: host or cells: TREx-293 (HEK-293 stably expressing Tet repressor); details: for inhibition at 1 µM: 1 μM test compound, read-out: Inhibition at 1 μM (NDP-α-MSH) In Normal System, MC4-R
Method in brief: as §2

MC4-R [7] = biological target: T1, MC4-R; test: cAMP functional activity assay in HEK-293 cells, normal system; type: cell-based; parameters: expressed in transfected cells; host or cells: HEK-293; details: for intrinsic activity at MC4-R in a normal system: normal receptor density system, NDP-α-MSH = 1.0; for functional status at MC4-R in cAMP assay: normal system, 1 μM concentration where stated
MC1-R = biological target: T2, MC1-R (Mus musculus, UniProt Q01727); test: Competitive inhibition assay using [I^125]-NDP-α-MSH, B-16 mouse melanoma cell membranes; type: binding; details: 1 μM test compound; read-out: Inhibition at 1 μM (NDP-α-MSH) In Normal System, MC1-R
T2 construct: B-16 mouse melanoma cells (containing MC1-R); endogenous in cells
Method in brief: as §2

[8] = IP (and IN) food intake, mice; type: in vivo; details: mouse, 4 hours
Description: IV and IP food intake and body weight change. Change in food intake and body weight was evaluated for selected compounds. Male Sprague-Dawley rats or male C57BL/6 mice were utilized. Animals were individually housed in conventional plexiglass hanging cages and maintained on a controlled 12 hour on/off light cycle. Water and powdered (LabDiet, 5P00 Prolab RMH 3000) or pelleted (Harlan Teklad 2018 18% Protein Rodent Diet) food was provided ad libitum. For 1 week before treatment, 24-hour food intake and body weight change was recorded to assess a baseline for the group during vehicle treatment. The rats were dosed IV with vehicle or selected compounds (0.5-3 mg/kg, and in some cases up to 10 mg/Kg) or dosed intraperitoneally (IP) with vehicle or selected compounds (0.5-10 mg/kg, and in some cases up to 50 mg/kg). Mice were dosed IP. […] The changes in body weight and food intake for the 48 hour and 72 hour periods after dosing were also measured to determined reversal of changes in body weight and food intake effects back to baseline levels.

T1 sequence (P32245 whole entry): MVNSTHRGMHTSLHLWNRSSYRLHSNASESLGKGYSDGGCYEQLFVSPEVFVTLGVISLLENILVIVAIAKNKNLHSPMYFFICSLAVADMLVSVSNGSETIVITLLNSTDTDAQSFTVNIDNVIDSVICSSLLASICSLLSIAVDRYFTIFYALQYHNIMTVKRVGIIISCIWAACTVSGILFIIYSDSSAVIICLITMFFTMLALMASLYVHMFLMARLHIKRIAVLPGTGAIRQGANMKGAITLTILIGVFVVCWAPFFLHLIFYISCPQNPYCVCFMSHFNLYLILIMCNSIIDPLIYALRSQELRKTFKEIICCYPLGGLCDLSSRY
Sequence of MC5-R (P33032 whole entry): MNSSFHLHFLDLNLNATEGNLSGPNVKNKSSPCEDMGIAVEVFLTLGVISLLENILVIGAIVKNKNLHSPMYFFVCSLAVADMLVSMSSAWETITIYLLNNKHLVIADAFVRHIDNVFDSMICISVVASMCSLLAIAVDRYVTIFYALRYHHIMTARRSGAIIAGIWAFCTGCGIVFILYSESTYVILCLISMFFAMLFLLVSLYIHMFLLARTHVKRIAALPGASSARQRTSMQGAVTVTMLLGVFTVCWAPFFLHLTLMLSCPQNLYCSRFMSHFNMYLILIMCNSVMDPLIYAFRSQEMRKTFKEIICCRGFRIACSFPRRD
T2 sequence (Q01727 whole entry): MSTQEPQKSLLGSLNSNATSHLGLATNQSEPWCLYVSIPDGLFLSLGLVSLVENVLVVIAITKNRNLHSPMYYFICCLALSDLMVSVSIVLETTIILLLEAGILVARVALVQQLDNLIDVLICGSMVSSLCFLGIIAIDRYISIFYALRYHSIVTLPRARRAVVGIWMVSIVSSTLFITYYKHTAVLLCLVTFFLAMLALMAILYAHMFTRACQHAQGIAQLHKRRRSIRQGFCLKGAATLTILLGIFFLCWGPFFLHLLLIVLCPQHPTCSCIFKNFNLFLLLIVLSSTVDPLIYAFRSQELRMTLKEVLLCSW
Sequence of MC3-R (P41968 whole entry): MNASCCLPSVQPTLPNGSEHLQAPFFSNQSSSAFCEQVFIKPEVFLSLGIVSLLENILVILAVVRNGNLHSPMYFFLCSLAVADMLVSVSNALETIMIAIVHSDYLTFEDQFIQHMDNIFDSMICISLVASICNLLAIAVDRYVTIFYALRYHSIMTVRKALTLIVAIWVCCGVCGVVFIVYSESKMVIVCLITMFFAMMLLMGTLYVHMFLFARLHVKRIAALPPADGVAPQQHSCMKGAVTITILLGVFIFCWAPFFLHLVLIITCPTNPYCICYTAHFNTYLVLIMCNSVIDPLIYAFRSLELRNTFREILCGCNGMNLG

| Compound | EC50 (MC4-R [1]) | Efficacy/Intrinsic Activity (MC4-R [1]) | decrease in body weight [2] | decrease in food intake [2] | inhibition at 1 µM (MC5-R) | inhibition at 1 µM (MC3-R) | Penile Erection IV ([3]; IV) | penile erection response ([3]; IV) | 24 hour decrease in food intake [4] | Efficacy/Intrinsic Activity (MC4-R [5]) | inhibition at 1 µM (MC4-R [6]) | intrinsic activity at MC4-R in a normal system (MC4-R [7]) | functional status at MC4-R in cAMP assay (MC4-R [7]) | inhibition at 1 µM (MC1-R) | maximal decrease in food intake ([8]; IP, 3 mg/kg) | other results |
| --- | --- | --- | --- | --- | --- | --- | --- | --- | --- | --- | --- | --- | --- | --- | --- | --- |
| C[C@H](NC(=O)[C@H](Cc1c[nH]c2ccccc12)NC(=O)[C@H](CCCNC(=N)N)NC(=O)[C@@H](Cc1ccc(Cl)cc1)NC(=O)[C@H](COCc1ccccc1)NC(=O)CCCCCCN)C(N)=O [Example 15, NH2—(CH2)6—C(═O)-Ser(Bzl)-D-Phe(4-Cl)-Arg-Trp-Ala-NH2] (H-[Ahp]S(Bn)[dPhe(4-Cl)]RWA-NH2) | 0.055 µM | 0.67 | 2% | 14% | 79% | 93% | No | no penile erection response | 4% | None | 100% | less than 0.1 | functionally inactive | 60% | – | – |
| N=C(N)NCCC[C@H](NC(=O)[C@@H](Cc1ccc(Cl)cc1)NC(=O)[C@H](COCc1ccccc1)NC(=O)CCCCCCN)C(=O)N[C@@H](Cc1c[nH]c2ccccc12)C(=O)N[C@@H](CC(=O)O)C(=O)N[C@@H](Cc1ccccc1)C(N)=O [Example 14, NH2—(CH2)6—C(═O)-Ser(Bzl)-D-Phe(4-Cl)-Arg-Trp-Asp-Phe-NH2] (H-[Ahp]S(Bn)[dPhe(4-Cl)]RWDF-NH2) | 0.141 µM | 0.64 | −2% | 50% | 52% | 66% | No | no penile erection response | 30% | None | 99% | 0.5 | partial agonist (intrinsic activity between 0.1 (10%) and 0.7 (70%) is classified as a partial agonist) | 38% | – | decrease in body weight ([4]; 24 hours): 2% |
| N=C(N)NCCC[C@H](NC(=O)[C@@H](Cc1ccc(Cl)cc1)NC(=O)[C@H](COCc1ccccc1)NC(=O)CCCCCCN)C(=O)N[C@@H](Cc1c[nH]c2ccccc12)C(N)=O [Example 1, NH2—(CH2)6—C(═O)-Ser(Bzl)-(D)Phe(4-Cl)-Arg-Trp-NH2] (H-[Ahp]S(Bn)[dPhe(4-Cl)]RW-NH2) | 0.021 µM | 0.97 | – | 21% | 73% | 94% | – | – | – | None | 99% | 0.32 | partial agonist (intrinsic activity between 0.1 (10%) and 0.7 (70%) is classified as a partial agonist) | 33% | 26% | maximal decrease in food intake ([8]; IN, 10 μg/kg): 16%; Penile Erection ICV ([3]; ICV): No; penile erection response ([3]; ICV, 0.01 to 5 nmol): no penile erection response; Ki (MC4-R [6]; read-out: Ki (nM) (NDP-α-MSH) In Normal System, MC4-R): 3 nM |
| C[C@@H]1CN(C(=O)[C@H](N)Cc2ccc(Cl)cc2)[C@@H](CCCNC(=N)N)CN1CCc1ccc2ccccc2c1 [Example 28, N-{3-[1-[2(R)-Amino-3-(4-chloro-phenyl)-propionyl]-5(R)-methyl-4-(2-naphthalen-2-yl-ethyl)-piperazin-2(S)-yl]-propyl}-guanidine] | 0.024 µM | 0.75 | – | – | 61% | 70% | No | – | – | 0.29 | 97% | 0.8 | agonist (intrinsic activity of 0.7 (70%) or higher is classified as an agonist) | 64% | 46% | penile erection response ([3]; IV, 0.003 to 3 mg/kg): no penile erections; EC50 (MC4-R [5]): 0.106 µM |
